Patent US9980927B2, “Use of tapentadol for inhibiting and/or treating depression and anxiety” (Gruenenthal GmbH, priority 2011, dated 2018)

Tests used:
Type in all cases: in vivo, human patients
[1] = system: patients with inadequately managed, severe chronic low back pain with or without a neuropathic pain component; experiment: Clinical global impression of change (CGIC), same trial
From the text: (§1) This was a multicenter, multinational, open-label, effectiveness phase IIIb trial to evaluate effectiveness and safety of tapentadol prolonged release treatment in patients with inadequately managed, severe chronic low back pain with or without a neuropathic pain component. Patients taking WHO Step II analgesics discontinued those analgesics before starting study medication; patients taking Step I analgesics and/or centrally acting co-analgesics continued on the same dose. […] All patients received tapentadol prolonged release (50-250 mg bid) for up to 12 weeks (5-week titration period and a 7-week maintenance period). Tapentadol immediate release (IR) 50 mg (twice a day, hours apart) was permitted (combined total daily dose of tapentadol prolonged release and tapentadol IR, 500 mg/day). The primary efficacy endpoint was the change from Baseline to Week 6 (when tapentadol prolonged release doses were stable) in average pain intensity on the 11-point NRS-3 using the last observation carried forward (LOCF) for imputing missing scores. The painDETECT questionnaire was used to evaluate the likelihood of a neuropathic pain component of low back pain; patients were classified as painDETECT “negative,” “unclear,” or “positive.” The population of patients classified as painDETECT negative was limited to approximately 30% of the total population.
All subjects completed Short Form-36 (SF-36) and EuroQol-5 Dimension (EQ-5D) questionnaires and the Hospital Anxiety and Depression Scale (HADS). The Patient Global Impression of Change (PGIC) and Clinical global impression of change (CGIC) were also used as secondary endpoints. For both tests, patients completed the statement, “since I began trial treatment, I would rate my overall condition as,” using 7 possible responses (“very much worse” to “very much improved”). Adverse events were recorded throughout the trial.

[2] = system: patients with inadequately managed, severe chronic low back pain with or without a neuropathic pain component; experiment: EuroQol-5 Dimension (EQ-5D) health status index score, same trial; conditions: Baseline to Week 12
From the text: (§2) This was a multicenter, multinational, open-label, effectiveness phase IIIb trial to evaluate effectiveness and safety of tapentadol prolonged release treatment in patients with inadequately managed, severe chronic low back pain with or without a neuropathic pain component. Patients taking WHO Step II analgesics discontinued those analgesics before starting study medication; patients taking Step I analgesics and/or centrally acting co-analgesics continued on the same dose. […] All patients received tapentadol prolonged release (50-250 mg bid) for up to 12 weeks (5-week titration period and a 7-week maintenance period). Tapentadol immediate release (IR) 50 mg (twice a day, hours apart) was permitted (combined total daily dose of tapentadol prolonged release and tapentadol IR, 500 mg/day). The primary efficacy endpoint was the change from Baseline to Week 6 (when tapentadol prolonged release doses were stable) in average pain intensity on the 11-point NRS-3 using the last observation carried forward (LOCF) for imputing missing scores. […]
(§3) All subjects completed Short Form-36 (SF-36) and EuroQol-5 Dimension (EQ-5D) questionnaires and the Hospital Anxiety and Depression Scale (HADS). […] Adverse events were recorded throughout the trial.

[3] = system: patients with inadequately managed, severe chronic low back pain with or without a neuropathic pain component; experiment: Subject satisfaction with previous/new treatment, same trial; conditions: 0.0% at Baseline
From the text: as §1

[4] = system: patients with inadequately managed, severe chronic low back pain with or without a neuropathic pain component; experiment: Short Form 36 Health Survey (SF-36) scores, same trial; conditions: Baseline to Week 12, all P<0.05
From the text: as §2, §3

CC[C@@H](c1cccc(O)c1)[C@@H](C)CN(C)C [tapentadol, (−)-(1R,2R)-3-(3-dimethylamino-1-ethyl-2-methyl-propyl)-phenol]
percentage of patients reporting “very much improved” or “much improved” on the CGIC ([1]; Week 1 (26/172)): 15.1%
percentage of patients reporting “very much improved” or “much improved” on the CGIC ([1]; Week 6 (70/138)): 50.7%
percentage of patients reporting “very much improved” or “much improved” on the CGIC ([1]; Week 12 (62/91)): 68.2%
mean (SD) change in the EQ-5D health status index score ([2]; patients painDETECT negative, P=0.0022): 0.18
mean (SD) change in the EQ-5D health status index score ([2]; patients painDETECT positive, P<0.0001): 0.36 (0.32)
percentage of patients rating satisfaction with treatment “excellent” or “very good” ([3]; Week 6 (41/138)): 29.7%
percentage of patients rating satisfaction with treatment “excellent” or “very good” ([3]; Week 12 (48/91)): 52.8%
SF-36 physical functioning, bodily pain, general health, role-emotional and physical component summary scores ([4]; patients painDETECT negative or unclear/positive): improved
SF-36 role-physical, vitality, social functioning, mental health, reported health transition and mental component summary scores ([4]; patients painDETECT unclear/positive): also improved
